Experimental data as given in patent US7771935B2, “Evolving new molecular function” (President and Fellows of Harvard College, priority 2002, dated 2010).

Assays:
Vent DNA polymerase = Vent DNA polymerase (Thermococcus litoralis, UniProt P30317, DEL1082-1471/DEL495-1032); details: PCR conditions; cited from earlier work
chymotrypsin = target: T1, chymotrypsin (Bos taurus, UniProt P00766, DEL14-15/DEL147-148); details: known binding of the free ligand; cited from earlier work
T1 construct: purchased Sigma

papain = target: T2, papain (Carica papaya, UniProt P00784); details: known binding of the free ligand; cited from earlier work
T2 construct: purchased Sigma
T2 sequence (P00784 134-345): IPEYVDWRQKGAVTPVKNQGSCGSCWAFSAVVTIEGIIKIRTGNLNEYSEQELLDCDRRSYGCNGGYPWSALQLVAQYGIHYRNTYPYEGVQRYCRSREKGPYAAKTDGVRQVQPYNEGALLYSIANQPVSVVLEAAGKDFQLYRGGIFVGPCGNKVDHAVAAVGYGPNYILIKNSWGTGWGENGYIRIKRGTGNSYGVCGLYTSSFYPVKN

Taq DNA polymerase [1] = target: T3, Taq DNA polymerase (Thermus aquaticus, UniProt P19821); experiment: PCR incorporation of modified nucleotide triphosphates by Taq DNA polymerase; format: biochemical; details: 30 PCR cycles; pUC19 template; three natural dNTPs
T3 sequence (P19821 whole entry): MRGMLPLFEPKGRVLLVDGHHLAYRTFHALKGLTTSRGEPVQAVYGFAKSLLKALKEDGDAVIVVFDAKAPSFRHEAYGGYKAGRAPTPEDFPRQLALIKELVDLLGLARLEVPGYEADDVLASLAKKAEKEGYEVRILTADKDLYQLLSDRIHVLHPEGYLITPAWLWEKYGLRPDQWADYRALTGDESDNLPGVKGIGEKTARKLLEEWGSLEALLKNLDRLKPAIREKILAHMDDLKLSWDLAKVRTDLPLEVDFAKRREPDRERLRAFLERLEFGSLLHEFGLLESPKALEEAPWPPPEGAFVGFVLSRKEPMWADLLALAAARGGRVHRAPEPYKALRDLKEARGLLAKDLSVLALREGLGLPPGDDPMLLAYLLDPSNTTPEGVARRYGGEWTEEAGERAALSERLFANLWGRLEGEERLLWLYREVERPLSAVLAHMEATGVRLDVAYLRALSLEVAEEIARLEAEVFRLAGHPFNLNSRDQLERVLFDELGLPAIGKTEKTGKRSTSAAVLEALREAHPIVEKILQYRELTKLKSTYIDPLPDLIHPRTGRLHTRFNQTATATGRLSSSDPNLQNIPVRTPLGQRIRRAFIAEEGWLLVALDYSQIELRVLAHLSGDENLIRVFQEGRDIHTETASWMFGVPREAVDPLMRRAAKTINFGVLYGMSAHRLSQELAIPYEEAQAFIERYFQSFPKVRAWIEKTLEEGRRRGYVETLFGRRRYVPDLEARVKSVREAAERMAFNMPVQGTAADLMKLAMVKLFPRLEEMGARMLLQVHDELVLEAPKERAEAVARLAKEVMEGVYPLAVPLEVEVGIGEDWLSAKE
Protocol: The ability of the modified nucleotide triphosphates containing metal-binding functionality shown in FIG. 75 to be accepted by DNA polymerase enzymes was studied. Synthetic nucleotide triphosphates were purified by ion exchange and reverse-phase HPLC and were added to PCR reactions containing Taq DNA polymerase, three natural deoxynucleotide triphosphates, pUC19 template DNA, and two DNA primers. The primers were chosen to generate PCR products ranging from 50 to 200 base pairs in length. Control PCR reactions contained the four natural deoxynucleotide triphosphates and no non-natural nucleotides.

Taq DNA polymerase [2] = target: T3, Taq DNA polymerase; details: cited from earlier work
[3] = target: glutathione S-transferase (GST); details: read-out: Kd of binding to glutathione S-transferase (GST); cited from earlier work
[4] = Bromide structural and configurational stability under the reaction conditions (MALDI-TOF, chiral HPLC); format: physicochemical; details: 16 hours under the reaction conditions; both enantiomers

Vent DNA polymerase, sequence (P30317 other isoform, or with tags, fused parts or gaps DEL495-1032/DEL1082-1471): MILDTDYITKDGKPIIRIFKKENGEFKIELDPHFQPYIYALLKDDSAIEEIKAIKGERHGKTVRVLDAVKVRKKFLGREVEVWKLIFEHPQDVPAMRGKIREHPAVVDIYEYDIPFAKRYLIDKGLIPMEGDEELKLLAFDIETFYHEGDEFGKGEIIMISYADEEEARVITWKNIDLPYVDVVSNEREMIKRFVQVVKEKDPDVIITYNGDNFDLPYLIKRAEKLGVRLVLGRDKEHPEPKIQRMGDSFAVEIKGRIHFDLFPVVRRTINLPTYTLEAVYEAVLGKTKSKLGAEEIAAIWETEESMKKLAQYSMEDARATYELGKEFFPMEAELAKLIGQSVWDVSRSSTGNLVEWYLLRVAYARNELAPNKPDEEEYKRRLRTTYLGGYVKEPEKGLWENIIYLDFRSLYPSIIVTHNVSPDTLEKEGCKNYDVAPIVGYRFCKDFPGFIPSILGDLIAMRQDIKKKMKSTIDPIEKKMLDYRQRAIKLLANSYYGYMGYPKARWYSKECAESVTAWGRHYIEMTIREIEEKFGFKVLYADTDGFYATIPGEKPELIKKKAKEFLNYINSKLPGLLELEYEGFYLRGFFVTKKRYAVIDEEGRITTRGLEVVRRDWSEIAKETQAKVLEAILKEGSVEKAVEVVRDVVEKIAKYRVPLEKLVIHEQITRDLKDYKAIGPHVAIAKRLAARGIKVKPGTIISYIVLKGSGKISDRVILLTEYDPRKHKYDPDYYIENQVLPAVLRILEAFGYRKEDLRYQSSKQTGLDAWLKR

SMILES	incorporation by Taq DNA polymerase (Taq DNA polymerase [1])	acceptance by Taq DNA polymerase (Taq DNA polymerase [2])	also measured
CCCC#Cc1cn([C@H]2C[C@H](O)[C@@H](CO)O2)c(=O)[nH]c1=O [analog 1, 5-(1-pentynyl)-deoxyuridine]			acceptance by Vent DNA polymerase (Vent DNA polymerase): acceptance
CC(C)C[C@H](NC(=O)[C@@H](NC(=O)N[C@@H](Cc1ccccc1)C(=O)O)[C@@H]1CCN=C(N)N1)C(=O)N[C@H](C=O)Cc1ccccc1 [chymostatin]			affinity for chymotrypsin (chymotrypsin): binds to both proteases; affinity for papain (papain): binds to both proteases
NCC#Cc1cn([C@H]2C[C@H](O)[C@@H](CO)O2)c2ncnc(N)c12 [uridine analog 13, 7-aminopropynyl-7-deazadeoxyadenosine]	efficiently incorporated	acceptance	
NC(=O)CNC(=O)[C@H](CS)NC(=O)CC[C@H](N)C(=O)O [glutathione amide]			Kd [3]: ~10 µM
CCc1nc2c(N)ncnc2n1C1CC(O)C(COP(=O)(O)OP(=O)(O)OP(=O)(O)O)O1 (stereo not drawn) [8-modified adenosine triphosphate 33]	not accepted		
O=C(O)CCCC[C@@H]1SC[C@@H]2NC(=O)N[C@@H]21 [biotin]			affinity for chymotrypsin (chymotrypsin): no significant affinity
NCCCc1cn(C2CC(O)C(CO)O2)c2ncnc(N)c12 (stereo not drawn) [analog 11]		acceptance	
CNC(=O)C(C)Br (racemic) [N-methyl 2-bromopropionamide]			configurational stability by chiral HPLC [4]: No change in retention time
Cc1nc2c(N)ncnc2n1C1CC(O)C(COP(=O)(O)OP(=O)(O)OP(=O)(O)O)O1 (stereo not drawn) [8-modified adenosine triphosphate 32]	not accepted		
NCC=Cc1cn(C2CC(O)C(CO)O2)c2ncnc(N)c12 (stereo not drawn) [analog 12]		acceptance	
